Test results as given in ChEMBL document CHEMBL3639292, “17-hydroxy-19-nor-21-carboxylic acid-steroid Œ=-lactone derivative, use thereof, and medicament containing the derivative” (2015).

Target: T1, Androgen receptor (Homo sapiens, UniProt P10275)
T1 sequence (P10275 whole entry): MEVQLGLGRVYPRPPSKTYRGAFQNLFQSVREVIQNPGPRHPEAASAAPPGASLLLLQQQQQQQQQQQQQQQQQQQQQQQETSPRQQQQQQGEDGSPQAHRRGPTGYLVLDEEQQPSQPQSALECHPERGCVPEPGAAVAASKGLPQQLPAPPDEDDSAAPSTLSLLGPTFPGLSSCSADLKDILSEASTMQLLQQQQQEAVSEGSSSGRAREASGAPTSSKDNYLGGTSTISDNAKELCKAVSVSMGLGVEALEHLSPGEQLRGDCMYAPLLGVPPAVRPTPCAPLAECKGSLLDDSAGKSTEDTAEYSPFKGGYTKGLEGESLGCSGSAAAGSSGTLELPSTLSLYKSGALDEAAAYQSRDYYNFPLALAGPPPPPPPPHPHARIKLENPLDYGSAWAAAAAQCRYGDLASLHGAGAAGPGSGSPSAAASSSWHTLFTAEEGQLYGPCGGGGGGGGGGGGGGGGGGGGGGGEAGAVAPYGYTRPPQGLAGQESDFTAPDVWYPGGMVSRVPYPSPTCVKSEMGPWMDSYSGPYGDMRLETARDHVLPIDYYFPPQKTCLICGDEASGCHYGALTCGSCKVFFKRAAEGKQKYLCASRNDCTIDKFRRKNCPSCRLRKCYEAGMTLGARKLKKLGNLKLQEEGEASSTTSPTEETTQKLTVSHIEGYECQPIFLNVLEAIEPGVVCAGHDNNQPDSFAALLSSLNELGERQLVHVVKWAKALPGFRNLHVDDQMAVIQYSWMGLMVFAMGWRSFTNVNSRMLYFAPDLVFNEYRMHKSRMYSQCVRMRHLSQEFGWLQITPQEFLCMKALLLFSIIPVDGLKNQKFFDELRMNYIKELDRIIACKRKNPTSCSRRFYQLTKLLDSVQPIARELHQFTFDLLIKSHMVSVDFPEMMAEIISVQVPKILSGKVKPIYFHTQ
Test: Binding Assay: The test was carried out as in 1., with the following modifications: cytosol from androgen receptor-expressing insect cells (Hi5) was used, and the reference substance was 3H-testosterone.The results of the binding tests and the ratio of the competition factors CF(PR) and CR(MR) are shown in Table 1, which for comparison also shows receptor binding values of drospirenone as …

Row | SMILES | IC50
1 | C[C@]12CC[C@H]3[C@@H](CC4(CC4)C4=CC(=O)CC[C@@H]43)[C@@H]1CC[C@@]21C=CC(=O)O1 | 37 nM
2 | CC[C@]12CC[C@H]3[C@@H](CC4(CC4)C4=CC(=O)CC[C@@H]43)[C@@H]1CC[C@@]21C=CC(=O)O1 | 42 nM
